Data reported in patent US20240270821A1, “GIP/GLP1/GCG TRI-RECEPTOR AGONISTS AND USES THEREOF” (priority 2023, published 2024).
Like-named read-outs stand apart in the source and are kept apart here. Starred links: 1 amine or outer side, 2 acyl side, 3 side chain; linkers in the order of their positions; H or OH if unused. Non-standard residues stand in square brackets, D forms with d. Residues, ends and D or L forms follow the SMILES beside them. Groups on a side chain read outwards from the residue. No end group written: not given here. *: point of attachment. C20 diacid = O=C(O)CCCCCCCCCCCCCCCCCCC(=O)*; C18 diacid = O=C(O)CCCCCCCCCCCCCCCCC(=O)*; αMePhe(2-F) = C[C@](N)(Cc1ccccc1F)C(=O)O; γGlu = O=C(O)[C@H](CCC(=O)[*:2])N[*:1]; αMe4Pal = C[C@](N)(Cc1ccncc1)C(=O)O; αMeY = C[C@](N)(Cc1ccc(O)cc1)C(=O)O; αMeF = C[C@](N)(Cc1ccccc1)C(=O)O; 4Pal = N[C@@H](Cc1ccncc1)C(=O)O; αMeL = CC(C)C[C@](C)(N)C(=O)O; αMeS = C[C@](N)(CO)C(=O)O; Orn = NCCC[C@H](N)C(=O)O; AEEA = NCCOCCOCC(=O)O; Aib = CC(C)(N)C(=O)O

Columns and labels:
Assay type in all cases: cell-based
hGIPR [1] = target: T1, hGIPR (Homo sapiens, UniProt P48546); experiment: Functional cAMP activity in the presence of 1% HSA; conditions: read-out: cAMP Rel EC50, hGIPR
T1 sequence (P48546 22-466): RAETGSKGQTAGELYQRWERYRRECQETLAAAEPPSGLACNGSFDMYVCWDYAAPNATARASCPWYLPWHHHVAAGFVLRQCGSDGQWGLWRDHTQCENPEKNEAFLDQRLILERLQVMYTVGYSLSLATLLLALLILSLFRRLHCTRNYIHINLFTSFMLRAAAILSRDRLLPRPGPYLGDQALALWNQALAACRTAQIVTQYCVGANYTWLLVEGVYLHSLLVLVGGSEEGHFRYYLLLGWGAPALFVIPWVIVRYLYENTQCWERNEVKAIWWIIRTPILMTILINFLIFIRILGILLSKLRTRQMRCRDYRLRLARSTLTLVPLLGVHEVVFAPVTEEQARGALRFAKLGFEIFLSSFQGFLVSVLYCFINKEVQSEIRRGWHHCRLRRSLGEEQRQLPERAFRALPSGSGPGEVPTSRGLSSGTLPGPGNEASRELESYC

hGcgR = hGcgR (Homo sapiens, UniProt P47871); experiment: Functional cAMP activation in the presence of 0.1% casein (no HSA);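 further: intracellular cAMP rise after 30 min at 37 °C, read by HTRF against a cAMP standard curve, scaled from buffer only (0%) to maximal control ligand response (100%)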
human GcgR = human GcgR (Homo sapiens, UniProt P47871); experiment: Functional cAMP activity in the presence of 1% HSA
hGLP-1R [2] = target: T2, hGLP-1R (Homo sapiens, UniProt P43220); experiment: Functional cAMP activation in the presence of 0.1% casein (no HSA);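 further: intracellular cAMP rise after 30 min at 37 °C read by HTRF, normalized between buffer only (0%) and maximal control ligand (100%), four-parameter variable-slope fit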
hGLP-1R [3] = target: T2, hGLP-1R; experiment: Functional cAMP activity in the presence of 1% HSA; conditions: read-out: cAMP Rel EC50, hGLP-1R
hGIPR [4] = target: T1, hGIPR; experiment: Functional cAMP activation in the presence of 0.1% casein (no HSA);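 further: intracellular cAMP rise after 30 min at 37 °C read by HTRF against a standard curve, scaled between buffer alone (0%) and top control ligand concentration (100%), four-parameter fit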
[5] = read-out: Relative cAMP EC50, hGcgR
[6] = read-out: Relative cAMP EC50, hGLP-1R
[7] = read-out: Relative cAMP EC50, hGIPR
[8] = in the presence of 0.1% casein (no HSA), geometric mean, read-out: Relative cAMP EC50, hGcgR
[9] = in the presence of 0.1% casein (no HSA), geometric mean, read-out: Relative cAMP EC50, hGLP-1R
[10] = in the presence of 0.1% casein (no HSA), geometric mean, read-out: Relative cAMP EC50, hGIPR
[11] = HEK-293 clonal cell line, 1% HSA, geometric mean of relative EC50

Chain of human GcgR (P47871 26-477): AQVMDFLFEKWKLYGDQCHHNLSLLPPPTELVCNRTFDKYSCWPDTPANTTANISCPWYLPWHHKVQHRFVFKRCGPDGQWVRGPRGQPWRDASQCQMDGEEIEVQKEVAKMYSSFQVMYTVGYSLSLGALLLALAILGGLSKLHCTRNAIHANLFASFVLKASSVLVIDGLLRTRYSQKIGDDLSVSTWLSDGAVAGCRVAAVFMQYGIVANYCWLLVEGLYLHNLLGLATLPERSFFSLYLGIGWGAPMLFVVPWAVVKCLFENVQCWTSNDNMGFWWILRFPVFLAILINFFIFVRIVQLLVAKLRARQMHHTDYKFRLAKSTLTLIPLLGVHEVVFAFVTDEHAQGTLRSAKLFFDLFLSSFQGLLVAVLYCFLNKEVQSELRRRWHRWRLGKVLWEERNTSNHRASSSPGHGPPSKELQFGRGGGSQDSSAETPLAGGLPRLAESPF
Chain of hGcgR (P47871 26-477): as above
T2 sequence (P43220 24-463): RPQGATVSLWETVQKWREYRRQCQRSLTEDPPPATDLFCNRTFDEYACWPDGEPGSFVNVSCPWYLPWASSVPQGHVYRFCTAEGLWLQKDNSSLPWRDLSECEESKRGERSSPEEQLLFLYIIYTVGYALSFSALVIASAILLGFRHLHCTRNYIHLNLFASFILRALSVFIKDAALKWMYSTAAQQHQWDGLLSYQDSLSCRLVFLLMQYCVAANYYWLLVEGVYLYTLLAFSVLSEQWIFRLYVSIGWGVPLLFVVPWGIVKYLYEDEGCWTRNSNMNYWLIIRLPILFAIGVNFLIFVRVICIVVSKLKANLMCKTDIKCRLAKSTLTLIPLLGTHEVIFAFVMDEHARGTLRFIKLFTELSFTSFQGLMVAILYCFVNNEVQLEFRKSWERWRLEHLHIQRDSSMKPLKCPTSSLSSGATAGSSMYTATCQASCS

| Compound | EC50 (hGIPR [1]) [nM] | EC50 (hGcgR; [5]) [nM] | EC50 (human GcgR; read-out: cAMP Rel EC50, hGcgR) [nM] | EC50 (hGLP-1R [2]; [6]) [nM] | EC50 (hGLP-1R [3]) [nM] | EC50 (hGIPR [4]; [7]) [nM] | EC50 (hGcgR; [8]) [nM] | EC50 (hGLP-1R [2]; [9]) [nM] | EC50 (hGIPR [4]; [10]) [nM] | other results |
| --- | --- | --- | --- | --- | --- | --- | --- | --- | --- | --- |
| H-Y[Aib]QGT[αMePhe(2-F)]TSD[4Pal][αMeS]I[αMeL]LD[Orn]K([AEEA-γGlu-C18 diacid])AQ[Aib][Orn]FIEYLIEAGPSSGEPPPEEG-NH2 [Example 484] | 1.59 | 3.99 | 204 | 0.201 | 16 | 0.0152 |  |  |  |  |
| CC[C@H](C)[C@H](NC(=O)[C@H](CC(C)C)NC(=O)[C@](C)(Cc1ccc(O)cc1)NC(=O)[C@@H](CCC(=O)O)NC(=O)[C@@H](NC(=O)[C@H](Cc1ccccc1)NC(=O)[C@H](CCCN)NC(=O)C(C)(C)NC(=O)[C@H](CCC(N)=O)NC(=O)[C@H](C)NC(=O)[C@H](CCCCNC(=O)CC[C@H](NC(=O)CC[C@H](NC(=O)CCCCCCCCCCCCCCCCC(=O)O)C(=O)O)C(=O)O)NC(=O)[C@H](CCCN)NC(=O)[C@H](CC(=O)O)NC(=O)[C@H](CC(C)C)NC(=O)[C@](C)(CC(C)C)NC(=O)[C@H](CCC(=O)O)NC(=O)[C@](C)(CO)NC(=O)[C@H](Cc1ccncc1)NC(=O)[C@H](CC(=O)O)NC(=O)[C@H](CO)NC(=O)[C@@H](NC(=O)[C@](C)(Cc1ccccc1F)NC(=O)[C@@H](NC(=O)CNC(=O)[C@H](CCC(N)=O)NC(=O)C(C)(C)NC(=O)[C@@H](N)Cc1ccc(O)cc1)[C@@H](C)O)[C@@H](C)O)[C@@H](C)CC)C(=O)N[C@@H](CCC(=O)O)C(=O)NCC(=O)NCC(=O)N1CCC[C@H]1C(=O)N[C@@H](CO)C(=O)N[C@@H](CO)C(=O)NCC(=O)N[C@@H](CCC(=O)O)C(=O)N1CCC[C@H]1C(=O)N1CCC[C@H]1C(=O)N1CCC[C@H]1C(=O)N[C@@H](CCC(=O)O)C(N)=O [Example 447] (H-Y[Aib]QGT[αMePhe(2-F)]TSD[4Pal][αMeS]E[αMeL]LD[Orn]K([γGlu-γGlu-C18 diacid])AQ[Aib][Orn]FI[dE][αMeY]LIEGGPSSGEPPPE-NH2) | 1.81 | 9.71 | 1090 | 0.214 | 11.3 | 0.0177 |  |  |  |  |
| H-Y[Aib]QGT[αMePhe(2-F)]TSD[4Pal][αMeS]I[αMeL]LD[Orn]K([AEEA-γGlu-C18 diacid])AQ[Aib][Orn]FI[dE][αMeY]LIEGGPSSGEPEPSEG-NH2 [Example 481] | 1.19 | 1.22 | 100 | 0.204 | 14.2 | 0.0164 |  |  |  |  |
| H-Y[Aib]Q[dA]T[αMePhe(2-F)]TSD[4Pal][αMeS]I[αMeL]LD[Orn]K([AEEA-γGlu-C18 diacid])AQ[αMe4Pal]EFI[dE][αMeY]LIEGGPSSGEPPPSGTGE-NH2 [Example 766] | 14.1 | 0.689 | 65.7 | 0.273 | 32.5 | 0.0323 |  |  |  |  |
| H-Y[Aib]QGT[αMePhe(2-F)]TSD[4Pal][αMeS]I[αMeL]LD[Orn]K([γGlu-γGlu-C18 diacid])AQ[αMe4Pal]EFI[dE][αMeY]LIEGGPSSGAPPPEGTGE-NH2 [Example 764] | 0.649 |  |  |  | 38.8 |  |  |  |  | EC50 (hGcgR): 1.63 nM; EC50 (human GcgR): 146 nM; EC50 (hGLP-1R [2]): 0.289 nM; EC50 (hGIPR [4]): 0.00626 nM |
| H-Y[Aib]QGTFTSDYSI[αMeL]LDKQAAK([AEEA-AEEA-γGlu-C20 diacid])QFVEWLIAGGPSSGEPPPAEG-NH2 [Example 332] | 78.2 |  | 3340 |  | 298 |  | 11.8 | 1.24 | 0.413 |  |
| H-Y[Aib]QGT[αMePhe(2-F)]TSD[4Pal]SI[αMeL]LDKK([γGlu-γGlu-C18 diacid])AQ[Aib]AFIEYLSEGGPSSGEPPPSGSEE-NH2 [Example 632] |  |  |  |  |  |  |  |  |  | EC50 (hGIPR [1]; [11]): 5.48 nM; EC50 (hGcgR; in the presence of 0.1% casein (no HSA), geometric mean of relative EC50, read-out: Relative cAMP EC50, hGcgR): 13.5 nM; EC50 (human GcgR; HEK-293 clonal cell line, 1% HSA, geometric mean of relative EC50, read-out: cAMP Rel EC50, hGcgR): 1600 nM; EC50 (hGLP-1R [2]; in the presence of 0.1% casein (no HSA), geometric mean of relative EC50, read-out: Relative cAMP EC50, hGLP-1R): 0.951 nM; EC50 (hGLP-1R [3]; [11]): 88.2 nM; EC50 (hGIPR [4]; in the presence of 0.1% casein (no HSA), geometric mean of relative EC50, read-out: Relative cAMP EC50, hGIPR): 0.068 nM |
| H-Y[Aib]QGTFTSD[4Pal]SQ[αMeL]LDKK([γGlu-γGlu-C18 diacid])AQ[αMe4Pal]AFIE[αMe4Pal]LIEGGPSSGAPPPSGSEE-NH2 [Example 957] | 25 |  | 947 |  | 747 |  | 4.18 | 5.01 | 0.213 |  |
| H-Y[Aib]QGT[αMePhe(2-F)]TSD[4Pal][αMeS]I[αMeL]LD[Orn]K([AEEA-γGlu-C18 diacid])AQ[αMe4Pal]EFI[dE][αMeY]LIEGGPSSGEPPPEGE-NH2 [Example 1149] | 0.96 |  | 184 |  | 52.2 |  | 1.37 | 0.352 | 0.00804 |  |
| H-Y[Aib]QGTFTSDFSK[αMeL]LDKK([AEEA-AEEA-γGlu-C18 diacid])AQ[Aib]AFIEYLLEGGPSSGAPPPSGS-NH2 [Example 142] | 14.1 |  | 1230 |  | 391 |  | 3.49 | 4.37 | 0.216 |  |
| Y[Aib]QGTFTSD[4Pal]SQ[αMeL]LD[Orn]K([dE-γGlu-C18 diacid])AQ[αMe4Pal]AFIQ[αMeY]LLEGGPSSGAPPPSGSEEE-NH2 [Example 1083] | 20.5 |  | 1030 |  | 547 |  | 15 | 7.76 | 0.328 |  |
| Y[Aib]QGTFTSD[4Pal]SQ[αMeL]LDKK([AEEA-γGlu-C18 diacid])AQ[Aib]AFIEYLLE[dA]GPSSGAPPPSG[4Pal]-NH2 [Example 822] | 18.1 |  | 2100 |  | 322 |  | 11.6 | 2.51 | 0.186 |  |
| Y[Aib]QGT[αMeF]TSD[4Pal][αMeS]I[αMeL]LD[Orn]K([γGlu-γGlu-C18 diacid])AQ[αMe4Pal]EFI[dE][αMeY]LIEGGPSSGAPPPSGGGE-NH2 [Example 1174] | 0.707 |  | 347 |  | 60.2 |  | 2.58 | 0.454 | 0.00896 |  |
| Y[Aib]QGT[αMePhe(2-F)]TSD[4Pal][αMeS]I[αMeL]LD[Orn]K([AEEA-γGlu-C18 diacid])AQ[αMe4Pal]EFI[dE][αMeY]LIEGGPPS[Aib][Orn]PPP[Orn]SE-NH2 [Example 1196] | 0.605 |  | 257 |  | 45.4 |  |  |  |  | EC50 (hGcgR; 0.1% casein, no HSA, geometric mean, read-out: Relative cAMP EC50, hGcgR): 1.9 nM; EC50 (hGLP-1R [2]; 0.1% casein, no HSA, geometric mean, read-out: Relative cAMP EC50, hGLP-1R): 0.418 nM; EC50 (hGIPR [4]; 0.1% casein, no HSA, geometric mean, read-out: Relative cAMP EC50, hGIPR): 0.00756 nM |
| H-Y[Aib]QGT[αMePhe(2-F)]TSD[4Pal]SI[αMeL]LD[Orn]K([AEEA-γGlu-C18 diacid])AQ[αMe4Pal]EFI[dE][αMeY]LLEGGPSSGEPPPSGS-NH2 [Example 645] | 0.863 | 3.25 | 398 | 0.596 | 76.3 | 0.00724 |  |  |  |  |
| H-Y[Aib]QGT[αMePhe(2-F)]TSD[4Pal][αMeS]I[αMeL]LD[Orn]K([γGlu-γGlu-C18 diacid])AQ[Aib][Orn]FI[dE]YLLEGGPSSGEPPPSGTE-NH2 [Example 532] | 1.49 | 1.37 | 157 | 0.577 | 47.3 | 0.0159 |  |  |  |  |
